What is called Kd is a measure of binding affinity in units of concentration.

The values below come from publication PMC3189207, “DomPep—A General Method for Predicting Modular Domain-Mediated Protein-Protein Interactions” (PLoS ONE, 2011).

Where two headings read alike, the source gives them in different places. Residues, ends and D or L forms follow the SMILES beside them.

For one assay, the target named is T1, Scrib PDZ-2 domain (Homo sapiens, UniProt Q14160).
T1 construct: ROC curves of DomPep prediction for the three Scrib PDZ-1/2/3 domains
T1 sequence (Q14160 862-950 limits assumed): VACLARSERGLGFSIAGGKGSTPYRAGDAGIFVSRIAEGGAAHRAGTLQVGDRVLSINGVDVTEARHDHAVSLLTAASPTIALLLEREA
The experiment in a line: In-solution fluorescence polarization binding of peptides to Scrib PDZ2. Background: In fluorescence polarisation assays a small probe gives low polarisation when free and higher when bound to something large.

A further assay addresses T2, Scrib PDZ-1 domain (Homo sapiens, UniProt Q14160).
T2 construct: ROC curves of DomPep prediction for the three Scrib PDZ-1/2/3 domains
The experiment in a line: In-solution fluorescence polarization binding of peptides to Scrib PDZ1.

[1] abbreviates: Kd value of 100 µM applied as binding cutoff, NB without definition, read-out: Kd (µM) PDZ2.
Setting [2] is: Kd value of 100 µM applied as binding cutoff, NB without definition, read-out: Kd (µM) PDZ1.

T2 sequence (Q14160 728-815 limits assumed): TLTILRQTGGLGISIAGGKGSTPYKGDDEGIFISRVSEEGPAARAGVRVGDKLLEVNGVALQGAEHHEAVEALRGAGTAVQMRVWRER

For the compound `CC(C)C[C@H](NC(=O)[C@@H](NC(=O)[C@H](CC(N)=O)NC(=O)[C@@H](N)CCCNC(=N)N)[C@@H](C)O)C(=O)N[C@@H](Cc1ccc(O)cc1)C(=O)N[C@@H](Cc1ccccc1)C(=O)N[C@@H](CO)C(=O)N[C@H](C(=O)N[C@@H](CC(=O)O)C(=O)N[C@H](C(=O)O)C(C)C)[C@@H](C)O` [ABR] (H-RNTLYFSTDV-OH), the Kd at Scrib PDZ-2 domain (setting [1]) was 10.4 µM; on Scrib PDZ-1 domain (setting [2]) it was 12.5 µM.
Take `CC(C)C[C@H](NC(=O)[C@H](CO)NC(=O)[C@@H](NC(=O)[C@@H](NC(=O)[C@@H](NC(=O)[C@H](Cc1ccccc1)NC(=O)[C@@H](NC(=O)[C@H](CC(=O)O)NC(=O)[C@H](CCC(=O)O)NC(=O)[C@@H]1CCCN1)[C@@H](C)O)[C@@H](C)O)C(C)C)[C@@H](C)O)C(=O)O` [AHDC1] (H-PEDTFTVTSL-OH): the dissociation constant Kd was greater than 100 µM at Scrib PDZ-2 domain (setting [1]) and 19.2 µM on Scrib PDZ-1 domain (setting [2]).
As for `CC(C)C[C@H](NC(=O)[C@H](CO)NC(=O)[C@@H](NC(=O)[C@H](CC(=O)O)NC(=O)[C@@H](NC(=O)[C@H](CC(C)C)NC(=O)[C@H](CCC(N)=O)NC(=O)CNC(=O)[C@@H]1CCCN1C(=O)[C@@H](N)CCC(N)=O)C(C)C)[C@@H](C)O)C(=O)O` [ANKS4B] (H-QPGQLVDTSL-OH), the Kd on Scrib PDZ-2 domain (setting [1]) and at Scrib PDZ-1 domain (setting [2]) was greater than 100 µM in each case.
As for `CC(C)C[C@H](NC(=O)[C@H](Cc1ccc(O)cc1)NC(=O)[C@H](CO)NC(=O)CNC(=O)[C@H](CO)NC(=O)[C@@H](N)Cc1c[nH]cn1)C(=O)N[C@H](C(=O)N[C@H](C(=O)N[C@@H](CO)C(=O)N[C@H](C(=O)O)C(C)C)[C@@H](C)O)C(C)C` [APC] (H-HSGSYLVTSV-OH), the Kd at Scrib PDZ-2 domain (setting [1]) was 9.5 µM; at Scrib PDZ-1 domain (setting [2]), 12.3 µM.
Consider `CC(C)C[C@H](NC(=O)[C@@H]1CCCN1C(=O)[C@@H](NC(=O)[C@H](CCC(=O)O)NC(=O)[C@H](CCCCN)NC(=O)[C@H](CCCCN)NC(=O)[C@H](Cc1ccc(O)cc1)NC(=O)[C@H](CC(N)=O)NC(=O)[C@H](Cc1ccccc1)NC(=O)[C@@H](N)CO)[C@@H](C)O)C(=O)O` [ARD50] (H-SFNYKKETPL-OH), for which the Kd at Scrib PDZ-2 domain (setting [1]) was 34.3 µM; at Scrib PDZ-1 domain (setting [2]) it was 23.6 µM.
As for `CSCC[C@H](N)C(=O)N[C@@H](CCC(=O)O)C(=O)N[C@@H](CCCNC(=N)N)C(=O)N[C@@H](CC(C)C)C(=O)N[C@@H](CCCNC(=N)N)C(=O)N[C@H](C(=O)N[C@@H](CCC(=O)O)C(=O)N[C@H](C(=O)N[C@@H](CC(=O)O)C(=O)N[C@H](C(=O)O)C(C)C)[C@@H](C)O)C(C)C` [ARHGEF16] (H-MERLRVETDV-OH), the equilibrium dissociation constant (Kd) is 7.7 µM at Scrib PDZ-2 domain (setting [1]) and 27.5 µM at Scrib PDZ-1 domain (setting [2]).
`CC(C)C[C@H](NC(=O)[C@@H](NC(=O)CNC(=O)[C@H](CC(N)=O)NC(=O)[C@H](CCCCN)NC(=O)[C@H](CO)NC(=O)[C@H](CC(=O)O)NC(=O)[C@H](Cc1ccc(O)cc1)NC(=O)[C@@H](N)CCCNC(=N)N)[C@@H](C)O)C(=O)N[C@H](C(=O)O)C(C)C` [C11orf52] (H-RYDSKNGTLV-OH): the Kd at Scrib PDZ-2 domain (setting [1]) and at Scrib PDZ-1 domain (setting [2]) was greater than 100 µM each time.
As for `CC[C@H](C)[C@H](N)C(=O)N[C@@H](CC(C)C)C(=O)N[C@@H](CCCNC(=N)N)C(=O)N[C@@H](CCCCN)C(=O)N[C@@H](CO)C(=O)N[C@H](C(=O)N[C@H](C(=O)N[C@H](C(=O)N[C@H](C(=O)N[C@H](C(=O)O)C(C)C)[C@@H](C)O)[C@@H](C)O)[C@@H](C)O)[C@@H](C)O` [DSC54] (H-ILRKSTTTTV-OH), the Kd at Scrib PDZ-2 domain (setting [1]) and on Scrib PDZ-1 domain (setting [2]) was greater than 100 µM in each case.
Take `CSCC[C@H](NC(=O)CNC(=O)[C@H](CC(N)=O)NC(=O)[C@@H](NC(=O)[C@H](CC(C)C)NC(=O)[C@H](CCC(N)=O)NC(=O)[C@@H](N)C(C)C)C(C)C)C(=O)N[C@H](C(=O)N1CCC[C@H]1C(=O)N[C@@H](CC(C)C)C(=O)O)C(C)C` [EPHA5] (H-VQLVNGMVPL-OH): the dissociation constant (Kd) was 75.7 µM on Scrib PDZ-2 domain (setting [1]) and greater than 100 µM on Scrib PDZ-1 domain (setting [2]).
For `CC(C)C[C@H](NC(=O)[C@H](CS)NC(=O)[C@H](Cc1c[nH]cn1)NC(=O)[C@H](CC(C)C)NC(=O)[C@H](C)NC(=O)[C@H](CCC(=O)O)NC(=O)[C@H](CC(C)C)NC(=O)[C@H](CCC(=O)O)NC(=O)[C@@H]1CCCN1C(=O)[C@@H](N)CC(=O)O)C(=O)O` [EPHA8] (H-DPELEALHCL-OH), the Kd at Scrib PDZ-2 domain (setting [1]) is 24.9 µM; on Scrib PDZ-1 domain (setting [2]), greater than 100 µM.
Turning to `CC(C)C[C@H](NC(=O)[C@H](CO)NC(=O)[C@@H](NC(=O)[C@H](CCC(=O)O)NC(=O)[C@H](CCC(=O)O)NC(=O)[C@H](CS)NC(=O)[C@@H](NC(=O)[C@H](CCCNC(=N)N)NC(=O)[C@@H](NC(=O)[C@@H]1CCCN1)C(C)C)C(C)C)[C@@H](C)O)C(=O)O` [FAM105B] (H-PVRVCEETSL-OH), the Kd was 17.6 µM on Scrib PDZ-2 domain (setting [1]) and 1.9 µM on Scrib PDZ-1 domain (setting [2]).
Take `CC[C@H](C)[C@H](NC(=O)[C@H](CC(C)C)NC(=O)[C@H](CCC(N)=O)NC(=O)[C@H](CCSC)NC(=O)[C@H](CC(N)=O)NC(=O)[C@H](Cc1ccccc1)NC(=O)[C@@H](N)CO)C(=O)N[C@@H](CO)C(=O)N[C@@H](CCC(N)=O)C(=O)N[C@H](C(=O)O)C(C)C` [FAM126B] (H-SFNMQLISQV-OH): the Kd at Scrib PDZ-2 domain (setting [1]) and at Scrib PDZ-1 domain (setting [2]) was greater than 100 µM throughout.
With `CC(C)C[C@H](NC(=O)[C@@H](N)C(C)C)C(=O)N[C@@H](Cc1ccc(O)cc1)C(=O)N1CCC[C@H]1C(=O)N[C@@H](CCCNC(=N)N)C(=O)N[C@@H](CCC(=O)O)C(=O)NCC(=O)N[C@H](C(=O)N[C@@H](CCC(=O)O)C(=O)N[C@H](C(=O)O)C(C)C)[C@@H](C)O` [FOXl1] (H-VLYPREGTEV-OH), the Kd is 24.7 µM at Scrib PDZ-2 domain (setting [1]) and greater than 100 µM at Scrib PDZ-1 domain (setting [2]).
As to `CSCC[C@H](NC(=O)[C@H](CC(C)C)NC(=O)[C@@H](NC(=O)[C@H](C)NC(=O)[C@H](CCSC)NC(=O)[C@H](CCCCN)NC(=O)[C@H](CC(N)=O)NC(=O)[C@@H]1CCCN1C(=O)[C@H](CC(N)=O)NC(=O)[C@@H](N)CC(C)C)[C@@H](C)O)C(=O)O` [GLO1] (H-LNPNKMATLM-OH), the Kd on Scrib PDZ-2 domain (read-out: Kd (µM) PDZ2, Kd value of 100 µM applied as binding cutoff, NB without definition) was greater than 100 µM; on Scrib PDZ-1 domain (read-out: Kd (µM) PDZ1, Kd value of 100 µM applied as binding cutoff, NB without definition) it was greater than 100 µM.
For the compound `CSCC[C@H](NC(=O)[C@H](CCCNC(=N)N)NC(=O)[C@H](CCCCN)NC(=O)[C@H](CCC(=O)O)NC(=O)[C@H](C)NC(=O)[C@@H](N)Cc1ccc(O)cc1)C(=O)N[C@@H](CC(C)C)C(=O)N[C@H](C(=O)N[C@@H](CCC(=O)O)C(=O)N[C@H](C(=O)O)C(C)C)[C@@H](C)O` [KCNA6] (H-YAEKRMLTEV-OH), the dissociation constant (Kd) at Scrib PDZ-2 domain (setting [1]) and at Scrib PDZ-1 domain (setting [2]) was greater than 100 µM each time.
On to `CC[C@H](C)[C@H](NC(=O)[C@H](CCCNC(=N)N)NC(=O)[C@@H](NC(=O)[C@H](CO)NC(=O)[C@H](CC(C)C)NC(=O)[C@H](C)NC(=O)[C@@H](N)CO)C(C)C)C(=O)N[C@@H](CO)C(=O)N[C@@H](CC(N)=O)C(=O)N[C@H](C(=O)O)C(C)C` [KCNJ10] (H-SALSVRISNV-OH), for which the Kd on Scrib PDZ-2 domain (setting [1]) and at Scrib PDZ-1 domain (setting [2]) was greater than 100 µM in each case.
As to `CC(C)C[C@H](NC(=O)[C@H](CCCNC(=N)N)NC(=O)[C@@H]1CCCN1C(=O)[C@H](Cc1c[nH]cn1)NC(=O)[C@H](CO)NC(=O)[C@@H]1CCCN1)C(=O)N[C@@H](CCC(N)=O)C(=O)N[C@H](C(=O)N[C@@H](Cc1c[nH]cn1)C(=O)N[C@H](C(=O)O)C(C)C)[C@@H](C)O` [KIRREL2] (H-PSHPRLQTHV-OH), the equilibrium dissociation constant (Kd) at Scrib PDZ-2 domain (setting [1]) and at Scrib PDZ-1 domain (setting [2]) was greater than 100 µM each time.
`CSCC[C@H](NC(=O)[C@@H](N)C(C)C)C(=O)N[C@@H](CCCNC(=N)N)C(=O)N[C@@H](CC(C)C)C(=O)N[C@@H](CCC(N)=O)C(=O)N[C@@H](CO)C(=O)N[C@@H](CCC(=O)O)C(=O)N[C@H](C(=O)N[C@@H](CO)C(=O)N[C@H](C(=O)O)C(C)C)[C@@H](C)O` [VANGL2] (H-VMRLQSETSV-OH): the dissociation constant (Kd) on Scrib PDZ-1 domain (setting [2]) was 21.6 µM.
